In one assay the target is CDK2/Cyclin E1 (Homo sapiens, UniProt P24941). In words: CDK2/Cyclin E1 Biochemical Assay (TR-FRET), 0.060 mM ATP. Particulars: 0.15 μM Rb (Ser780)-biotin substrate, pH7.0, 60 min preincubation, 120 min reaction, room temperature. In outline: (§1)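 Percent inhibition was derived from the 665 nm/620 nm TR-FRET ratio after a 120-minute room-temperature reaction on 0.15 μM Rb (Ser780)-biotin, preceded by 60-minute enzyme–compound preincubation. IC50 came from four-parameter logistic fitting.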

The target of the next assay is CDK1/Cyclin B1 (Homo sapiens, UniProt P06493). In words: CDK1/Cyclin B1 Biochemical Assay (TR-FRET), 0.015 mM ATP. Conditions: 0.15 μM Rb (Ser780)-biotin substrate, pH7.0, 60 min preincubation, 120 min reaction, room temperature. In outline:
as §1

22 molecules from patent US20260297080A1, “BICYCLIC COMPOUNDS AS CDK INHIBITORS” (BeOne Medicines I GmbH, priority 2022, published 2026) can be followed below.

Sequence of CDK1/Cyclin B1 (P06493 whole entry): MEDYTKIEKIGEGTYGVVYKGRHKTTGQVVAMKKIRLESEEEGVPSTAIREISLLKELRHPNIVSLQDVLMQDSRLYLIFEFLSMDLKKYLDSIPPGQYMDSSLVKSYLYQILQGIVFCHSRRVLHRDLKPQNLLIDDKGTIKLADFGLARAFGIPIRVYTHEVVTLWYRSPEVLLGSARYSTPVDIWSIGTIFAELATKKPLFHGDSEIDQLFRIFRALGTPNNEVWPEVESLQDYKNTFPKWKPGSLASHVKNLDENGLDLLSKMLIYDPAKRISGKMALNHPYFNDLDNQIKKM
Sequence of CDK1/Cyclin B1 (P14635 whole entry partner): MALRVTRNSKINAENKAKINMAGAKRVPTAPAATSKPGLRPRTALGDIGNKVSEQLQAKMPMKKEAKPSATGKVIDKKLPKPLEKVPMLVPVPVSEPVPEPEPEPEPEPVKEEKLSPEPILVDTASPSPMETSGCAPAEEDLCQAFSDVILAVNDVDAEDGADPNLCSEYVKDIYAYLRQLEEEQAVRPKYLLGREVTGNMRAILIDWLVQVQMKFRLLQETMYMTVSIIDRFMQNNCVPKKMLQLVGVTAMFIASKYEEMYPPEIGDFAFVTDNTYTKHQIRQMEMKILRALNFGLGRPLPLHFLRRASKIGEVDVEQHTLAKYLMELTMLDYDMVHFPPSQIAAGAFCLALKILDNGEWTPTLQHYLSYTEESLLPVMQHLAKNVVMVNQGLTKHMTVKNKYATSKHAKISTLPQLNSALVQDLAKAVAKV

`CC(C)(CO)NC(=O)O[C@H]1CC[C@@H](c2cc(Nc3ccc4c(c3F)CNS4(=O)=O)n[nH]2)C1` (relative stereo) [Example 329, cis-3-(3-((4-fluoro-1,1-dioxido-2,3-dihydrobenzo[d]isothiazol-5-yl)amino)-1H-pyrazol-5-yl)cyclopentyl(1-hydroxy-2-methylpropan-2-yl)carbamate]: the IC50 at CDK2/Cyclin E1 came to 2.7 nM; against CDK1/Cyclin B1 it was 175 nM.

With `COCC(C)NC(=O)O[C@H]1CC[C@@H](c2cc(Nc3ccc4c(c3F)CS(=O)(=O)N4C)n[nH]2)C1` (relative stereo) [Example 331, cis-3-(3-((4-fluoro-1-methyl-2,2-dioxido-1,3-dihydrobenzo[c]isothiazol-5-yl)amino)-1H-pyrazol-5-yl)cyclopentyl(1-methoxypropan-2-yl)carbamate], the IC50 at CDK2/Cyclin E1 came to 3.9 nM; against CDK1/Cyclin B1, 229 nM.

On to `O=C(NC1(CO)CC1)O[C@H]1CC[C@@H](c2cc(Nc3ccc4c(c3F)CNS4(=O)=O)n[nH]2)C1` (relative stereo) [Example 333, cis-3-(3-((4-fluoro-1,1-dioxido-2,3-dihydrobenzo[d]isothiazol-5-yl)amino)-1H-pyrazol-5-yl)cyclopentyl(1-(hydroxymethyl)cyclopropyl)carbamate], for which the IC50 on CDK2/Cyclin E1 came to 10 nM; against CDK1/Cyclin B1, 402 nM.

Consider `CC(C)NC(=O)O[C@H]1CC[C@@H](c2cc(Nc3ccc4c(c3)C(F)(F)S(=O)(=O)N4)n[nH]2)C1` (relative stereo) [Example 334, cis-3-(3-((3,3-difluoro-2,2-dioxido-1,3-dihydrobenzo[c]isothiazol-5-yl)amino)-1H-pyrazol-5-yl)cyclopentyl isopropylcarbamate], for which the values for the IC50 at CDK2/Cyclin E1 and against CDK1/Cyclin B1 were 84 nM and 899 nM, respectively.

Consider `CN1Cc2c(ccc(Nc3cc([C@@H]4CC[C@H](OC(=O)NC5(C)CCOC5)C4)[nH]n3)c2F)S1(=O)=O` (relative stereo) [Example 335, cis-3-(3-((4-fluoro-2-methyl-1,1-dioxido-2,3-dihydrobenzo[d]isothiazol-5-yl)amino)-1H-pyrazol-5-yl)cyclopentyl(3-methyltetrahydrofuran-3-yl)carbamate], for which the IC50 was found to be 5.1 nM on CDK2/Cyclin E1 and 351 nM at CDK1/Cyclin B1.

As to `CN1Cc2c(ccc(Nc3cc([C@@H]4CC[C@H](OC(=O)NC5COC5)C4)[nH]n3)c2F)S1(=O)=O` (relative stereo) [Example 336, cis-3-(3-((4-fluoro-2-methyl-1,1-dioxido-2,3-dihydrobenzo[d]isothiazol-5-yl)amino)-1H-pyrazol-5-yl)cyclopentyl oxetan-3-ylcarbamate], the IC50 came to 97 nM against CDK2/Cyclin E1 and 1470 nM against CDK1/Cyclin B1.

In the case of `CC(NC(=O)O[C@H]1CC[C@@H](c2cc(Nc3ccc4c(c3F)CN(C)S4(=O)=O)n[nH]2)C1)C1COC1` (relative stereo) [Example 337, cis-3-(3-((4-fluoro-2-methyl-1,1-dioxido-2,3-dihydrobenzo[d]isothiazol-5-yl)amino)-1H-pyrazol-5-yl)cyclopentyl(1-(oxetan-3-yl)ethyl)carbamate], the IC50 stood at 42 nM at CDK2/Cyclin E1 and 1730 nM against CDK1/Cyclin B1.

Turning to `COCC(C)NC(=O)O[C@H]1CC[C@@H](c2cc(Nc3ccc4c(c3F)CN(C)S4(=O)=O)n[nH]2)C1` (relative stereo) [Example 338, cis-3-(3-((4-fluoro-2-methyl-1,1-dioxido-2,3-dihydrobenzo[d]isothiazol-5-yl)amino)-1H-pyrazol-5-yl)cyclopentyl(1-methoxypropan-2-yl)carbamate], the IC50 came to 13 nM at CDK2/Cyclin E1 and 544 nM on CDK1/Cyclin B1.

With `CN1c2ccc(Nc3cc([C@@H]4CC[C@H](OC(=O)N[C@H]5CC[C@@H](O)CC5)C4)[nH]n3)cc2CS1(=O)=O` (relative stereo) [Example 341, cis-3-(3-((1-methyl-2,2-dioxido-1,3-dihydrobenzo[c]isothiazol-5-yl)amino)-1H-pyrazol-5-yl)cyclopentyl((1s,4s)-4-hydroxycyclohexyl)carbamate], the 50% inhibitory concentration (IC50) against CDK2/Cyclin E1 turned out to be 4.7 nM; against CDK1/Cyclin B1 it was 77 nM.

As for `CN1c2ccc(Nc3cc([C@@H]4CC[C@H](OC(=O)NC5(CO)CC5)C4)[nH]n3)cc2CS1(=O)=O` (relative stereo) [Example 342, cis-3-(3-((1-methyl-2,2-dioxido-1,3-dihydrobenzo[c]isothiazol-5-yl)amino)-1H-pyrazol-5-yl)cyclopentyl(1-(hydroxymethyl)cyclopropyl)carbamate], the IC50 against CDK2/Cyclin E1 was determined as 4.9 nM; against CDK1/Cyclin B1, 61 nM.

For the molecule `CC(NC(=O)O[C@H]1CC[C@@H](c2cc(Nc3ccc4c(c3)CS(=O)(=O)N4)n[nH]2)C1)C1COC1` (relative stereo) [Example 343, cis-3-(3-((2,2-dioxido-1,3-dihydrobenzo[c]isothiazol-5-yl)amino)-1H-pyrazol-5-yl)cyclopentyl(1-(oxetan-3-yl)ethyl)carbamate], the IC50 on CDK2/Cyclin E1 was found to be 3.2 nM; at CDK1/Cyclin B1, 43 nM.

With `COCC1(NC(=O)O[C@H]2CC[C@@H](c3cc(Nc4ccc5c(c4F)CN(C)S5(=O)=O)n[nH]3)C2)CC1` (relative stereo) [Example 344, cis-3-(3-((4-fluoro-2-methyl-1,1-dioxido-2,3-dihydrobenzo[d]isothiazol-5-yl)amino)-1H-pyrazol-5-yl)cyclopentyl(1-(methoxymethyl)cyclopropyl)carbamate], the IC50 on CDK2/Cyclin E1 was 6.4 nM; at CDK1/Cyclin B1 it was 626 nM.

Take `CC(C)NC(=O)O[C@H]1CC[C@@H](c2cc(Nc3ccc4c(c3CO)CNS4(=O)=O)n[nH]2)C1` (relative stereo) [Example 345, cis-3-(3-((4-(hydroxymethyl)-1,1-dioxido-2,3-dihydrobenzo[d]isothiazol-5-yl)amino)-1H-pyrazol-5-yl)cyclopentyl isopropylcarbamate]: the results for the IC50 at CDK2/Cyclin E1 and against CDK1/Cyclin B1 were 64 nM and 1730 nM, respectively.

As for `CC(C)NC(=O)O[C@H]1CC[C@@H](c2cc(Nc3ccc4c(c3)C(F)(F)S(=O)(=O)N4C)n[nH]2)C1` (relative stereo) [Example 346, cis-3-(3-((3,3-difluoro-1-methyl-2,2-dioxido-1,3-dihydrobenzo[c]isothiazol-5-yl)amino)-1H-pyrazol-5-yl)cyclopentyl isopropylcarbamate], the IC50 against CDK2/Cyclin E1 came out at 31 nM; against CDK1/Cyclin B1, 482 nM.

On to `CN1c2ccc(Nc3cc([C@@H]4CC[C@H](OC(=O)N[C@H]5CC[C@@H](O)CC5)C4)[nH]n3)c(F)c2CS1(=O)=O` (relative stereo) [Example 347, cis-3-(3-((4-fluoro-1-methyl-2,2-dioxido-1,3-dihydrobenzo[c]isothiazol-5-yl)amino)-1H-pyrazol-5-yl)cyclopentyl((1s,4s)-4-hydroxycyclohexyl)carbamate], for which the IC50 is 9.3 nM against CDK2/Cyclin E1 and 411 nM on CDK1/Cyclin B1.

Turning to `C[C@@H](CO)NC(=O)O[C@H]1CC[C@@H](c2cc(Nc3ccc4c(c3F)CS(=O)(=O)N4C)n[nH]2)C1` (relative stereo) [Example 348, cis-3-(3-((4-fluoro-1-methyl-2,2-dioxido-1,3-dihydrobenzo[c]isothiazol-5-yl)amino)-1H-pyrazol-5-yl)cyclopentyl((S)-1-hydroxypropan-2-yl)carbamate], the IC50 was 22 nM against CDK2/Cyclin E1 and 635 nM against CDK1/Cyclin B1.

As to `CN1c2ccc(Nc3cc([C@@H]4CC[C@H](OC(=O)NC5(CO)CC5)C4)[nH]n3)c(F)c2CS1(=O)=O` (relative stereo) [Example 350, cis-3-(3-((4-fluoro-1-methyl-2,2-dioxido-1,3-dihydrobenzo[c]isothiazol-5-yl)amino)-1H-pyrazol-5-yl)cyclopentyl(1-(hydroxymethyl)cyclopropyl)carbamate], the IC50 against CDK2/Cyclin E1 is 20 nM; against CDK1/Cyclin B1 it was 321 nM.

Turning to `C[C@@H](CO)NC(=O)O[C@H]1CC[C@@H](c2cc(Nc3ccc4c(c3F)CN(C)S4(=O)=O)n[nH]2)C1` (relative stereo) [Example 351, cis-3-(3-((4-fluoro-2-methyl-1,1-dioxido-2,3-dihydrobenzo[d]isothiazol-5-yl)amino)-1H-pyrazol-5-yl)cyclopentyl((S)-1-hydroxypropan-2-yl)carbamate], the results for the IC50 at CDK2/Cyclin E1 and against CDK1/Cyclin B1 were 40 nM and 658 nM, respectively.

For `Cc1c(Nc2cc([C@@H]3CC[C@H](OC(=O)NC(C)C)C3)[nH]n2)ccc2c1S(=O)(=O)NC2` (relative stereo) [Example 353, cis-3-(3-((7-methyl-1,1-dioxido-2,3-dihydrobenzo[d]isothiazol-6-yl)amino)-1H-pyrazol-5-yl)cyclopentyl isopropylcarbamate], the IC50 against CDK2/Cyclin E1 turned out to be 2.4 nM; against CDK1/Cyclin B1, 93 nM.

For `C[C@H]1[C@H](O)CN1C(=O)O[C@H]1CC[C@@H](c2cc(Nc3ccc4c(c3)CS(=O)(=O)N4C)n[nH]2)C1` (relative stereo) [Example 354, cis-3-(3-((1-methyl-2,2-dioxido-1,3-dihydrobenzo[c]isothiazol-5-yl)amino)-1H-pyrazol-5-yl)cyclopentyl(2S,3R)-3-hydroxy-2-methylazetidine-1-carboxylate], the IC50 stood at 11 nM against CDK2/Cyclin E1 and 85 nM against CDK1/Cyclin B1.

As for `C[C@H]1[C@H](O)CN1C(=O)O[C@H]1CC[C@@H](c2cc(Nc3ccc4c(c3F)CS(=O)(=O)N4C)n[nH]2)C1` (relative stereo) [Example 355, cis-3-(3-((4-fluoro-1-methyl-2,2-dioxido-1,3-dihydrobenzo[c]isothiazol-5-yl)amino)-1H-pyrazol-5-yl)cyclopentyl(2S,3R)-3-hydroxy-2-methylazetidine-1-carboxylate], the IC50 stood at 19 nM against CDK2/Cyclin E1 and 361 nM against CDK1/Cyclin B1.

For the molecule `CC(C)NC(=O)O[C@H]1CC[C@@H](c2cc(Nc3ccc4c(c3F)C(F)(F)S(=O)(=O)N4)n[nH]2)C1` (relative stereo) [Example 356, cis-3-(3-((3,3,4-trifluoro-2,2-dioxido-1,3-dihydrobenzo[c]isothiazol-5-yl)amino)-1H-pyrazol-5-yl)cyclopentyl isopropylcarbamate], the IC50 came to 164 nM against CDK2/Cyclin E1 and 1580 nM against CDK1/Cyclin B1.
